Source: patent US6153591A, “Dipeptide caspase inhibitors and the use thereof” (Cytovia, Inc., priority 1999, dated 2000)
Square brackets hold non-standard residues; d marks the D form. Peptide text beside a SMILES is read from it. * marks the point of attachment. ξ: configuration not given here. 1Nal = N[C@@H](Cc1cccc2ccccc12)C(=O)O; ξPhg = NC(C(=O)O)c1ccccc1; Cbz = O=C(OCc1ccccc1)*; CH2F = FC*

Key:
[1] = system: lethality in mice caused by an anti-Fas antibody (clone Jo2); assay: Protection against lethality in mice caused by anti-Fas antibody (clone Jo2); type: in vivo; settings: Swiss Webster female mice, 6 μg Fas antibody
Experimental: Cbz-Phg-Asp-fmk was examined as a protectant against lethality in mice caused by an anti-Fas antibody (clone Jo2) (Rodriguez, I. et al J. Exp. Med 184:2067-2072 (1996). Swiss Webster female mice weighing between 16-20 g were used. Food and water were given ad libium. Purified hamster anti-mouse Fas monoclonal antibody (clone Jo2, commercially available) 1 mg/ml in phosphate buffered saline was dosed i.v. at 6 μg/mouse (80 μl).
Cbz-Phg-Asp-fmk was dissolved in 0.05M Tris base adjusted to pH 8.5 with HCl. The concentration of Cbz-Phg-Asp-fmk was 1-10 mg/ml dosed as a single bolus i.v. in a volume of 1-5 μl/g body weight. Five groups of mice were injected with 6 μg of Fas antibody per mouse. 5 minutes following the antibody injection the mice received either Tris vehicle control or 1, 2.5, 10 or 50 mg/kg of Cbz-Phg-Asp-fmk. The survival of the mice was followed throughout 24 hours.

[2] = target: T1, caspase-3 (CPP32) (Homo sapiens, UniProt P42574); assay: Fluorometric enzyme assay of caspase-3 inhibition; type: biochemical; settings: recombinant caspase-3, substrate Asp-Glu-Val-Asp-AMC 5 μM, 30° C., 30 minutes
T1 construct: made in house; host or cells: Sf9 insect cells, baculovirus vector
T1 sequence (P42574 29-175 limits assumed): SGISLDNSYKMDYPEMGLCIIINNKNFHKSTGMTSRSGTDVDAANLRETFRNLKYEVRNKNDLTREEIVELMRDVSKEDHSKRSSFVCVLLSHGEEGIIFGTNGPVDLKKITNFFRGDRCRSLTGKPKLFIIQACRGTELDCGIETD
T1 sequence (P42574 176-277 limits assumed): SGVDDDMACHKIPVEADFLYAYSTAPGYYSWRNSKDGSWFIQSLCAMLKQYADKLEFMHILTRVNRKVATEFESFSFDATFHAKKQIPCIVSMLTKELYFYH
Experimental: The activity of Cbz-Phg-Asp-fmk as an inhibitor of caspase-3 (CPP32) was measured in a fluorometric enzyme assay. Recombinant caspase-3 protein was prepared by expressing DNA clones encoding these enzymes in an insect host cell (sf9 cells) using baculovirus as the vector. See, Webb, N.R. et al., "Expression of proteins using recombinant Baculovirus," Techniques 2:173-188 (1990). Enzyme activity was measured using synthetic peptide substrates attached to a fluorogenic leaving group. Cleavage of the synthetic substrate by the enzyme results in a fluorescent signal which is read in a spectrofluorometer or in a fluorometric microtiter plate reader.
Caspase-3 activity was measured using the following buffer conditions: 100 mM HEPES pH 7.5, with 10% sucrose, 1% CHAPS. The peptide substrate for caspase-3 is Asp-Glu-Val-Asp-AMC (SEQ ID NO:2). […] The assay for enzyme activity was typically carried out at 30° C. for 30 minutes.

Row | Molecule | IC50 [2] | also measured
1 | O=C(O)C[C@H](NC(=O)C(NC(=O)OCc1ccccc1)c1ccccc1)C(=O)CF (stereo partly drawn) [Cbz-Phg-Asp-fmk] (Cbz-[ξPhg]-Asp-CH2F) |  | Percent survival ([1]; 1 mg/kg i.v., 1 h): 100%; Percent survival ([1]; 1 mg/kg i.v., 3 h): 14.3%; Percent survival ([1]; 1 mg/kg i.v., 24 h): 0%; Percent survival ([1]; 2.5 mg/kg i.v., 1 h): 100%; Percent survival ([1]; 2.5 mg/kg i.v., 3 h): 28.6%; Percent survival ([1]; 2.5 mg/kg i.v., 24 h): 0%; Percent survival ([1]; 10 mg/kg i.v., 1 h): 100%; Percent survival ([1]; 10 mg/kg i.v., 3 h): 42.9%; Percent survival ([1]; 10 mg/kg i.v., 24 h): 14.3%; Percent survival ([1]; 50 mg/kg i.v., 1 h): 100%; Percent survival ([1]; 50 mg/kg i.v., 3 h): 100%; Percent survival ([1]; 50 mg/kg i.v., 24 h): 42.9%
2 | O=C(O)CC(NC(=O)C(NC(=O)OCc1ccccc1)c1ccccc1F)C(=O)CF (stereo not shown) [Z-(2-F--Phg)--Asp--fmk, Z-(2-F-Phg)-Asp-fmk] | 360 nM | 
3 | O=C(O)CC(NC(=O)C(NC(=O)OCc1ccccc1)c1ccco1)C(=O)CF (stereo not shown) [Z-(2-Fug)--Asp--fmk, Z-(2-Fug)-Asp-fmk] | 440 nM | 
4 | O=C(O)C[C@H](NC(=O)C(NC(=O)OCc1ccccc1)c1cccs1)C(=O)CF (stereo partly shown) [Z-(2-Thg)--Asp--fmk, Z-(2-Thg)-Asp-fmk] | 280 nM | 
5 | CC(C)C(CNC(=O)OCc1ccccc1)C(=O)N[C@@H](CC(=O)O)C(=O)CF (stereo partly drawn) [Z-(2-i-Pr-- --Ala)--Asp--fmk, Z-(2-i-Pr-β-Ala)-Asp-fmk] | 1400 nM | 
6 | O=C(O)CC(NC(=O)C(CF)NC(=O)OCc1ccccc1)C(=O)CF (stereo not shown) [Z-(3-F-Ala)--Asp--fmk, Z-(3-F-Ala)-Asp-fmk] | 900 nM | 
7 | CC(C)(F)[C@H](NC(=O)OCc1ccccc1)C(=O)N[C@@H](CC(=O)O)C(=O)CF [Z-(3-F-Val)--Asp--fmk, Z-(3-F-Val)-Asp-fmk] | 440 nM | 
8 | CN(C)CC(NC(=O)OCc1ccccc1)C(=O)NC(CC(=O)O)C(=O)CF (stereo not shown) [Z-(3-Me2 N--Ala]--Asp--fmk, Z-(3-Me2 N-Ala)-Asp-fmk] | 9600 nM | 
9 | O=C(O)C[C@H](NC(=O)CC(NC(=O)OCc1ccccc1)c1ccccc1)C(=O)CF (stereo partly drawn) [Z-(3-Ph-- --Ala)--Asp--fmk, Z-(3-Ph-β-Ala)-Asp-fmk] | 4700 nM | 
10 | O=C(O)CC(NC(=O)C(NC(=O)OCc1ccccc1)c1ccsc1)C(=O)CF (stereo not shown) [Z-(3-Thg)--Asp--fmk, Z-(3-Thg)-Asp-fmk] | 340 nM | 
11 | O=C(O)CC(NC(=O)C(NC(=O)OCc1ccccc1)c1ccc(C(F)(F)F)cc1)C(=O)CF (stereo not shown) [Z-(4-CF3 --Phg)--Asp--fmk, Z-(4-CF3 -Phg)-Asp-fmk] | 1200 nM | 
12 | O=C(O)CC(NC(=O)C(NC(=O)OCc1ccccc1)c1ccc(Cl)cc1)C(=O)CF (stereo not shown) [Z-(4-Cl--Phg)--Asp--fmk, Z-(4-Cl-Phg)-Asp-fmk] | 270 nM | 
13 | O=C(O)CC(NC(=O)C(NC(=O)OCc1ccccc1)c1ccc(F)cc1)C(=O)CF (stereo not shown) [Z-(4-F-Phg)--Asp--fmk, Z-(4-F-Phg)-Asp-fmk] | 1200 nM | 
14 | CC(C(NC(=O)OCc1ccccc1)C(=O)NC(CC(=O)O)C(=O)CF)C(F)(F)F (stereo not shown) [Z--(F3 --Val)--Asp--fmk, Z-(F3 -Val)-Asp-fmk] | 600 nM | 
15 | O=C(O)C[C@H](NC(=O)[C@H](Cc1cccc2ccccc12)NC(=O)OCc1ccccc1)C(=O)CF [Z-[(L)-1-Nal]--Asp--fmk, Z-[(L)-1-Nal]-Asp-fmk] (Cbz-[1Nal]-Asp-CH2F) | 1000 nM | 
16 | O=C(O)CC(NC(=O)C(NC(=O)OCc1ccccc1)c1cccs1)C(=O)CF (stereo not shown) [Z-[(L)-2-Thg]--Asp--fmk, Z-[(L)-2-Thg]-Asp-fmk] | 510 nM | 
17 | N#CCC(NC(=O)OCc1ccccc1)C(=O)NC(CC(=O)O)C(=O)CF (stereo not shown) [Z-[(L)-3-CN--Ala]--Asp--fmk, Z-[(L)-3-CN-Ala]-Asp-fmk] | 530 nM | 
18 | O=C(O)CC(NC(=O)C(CCl)NC(=O)OCc1ccccc1)C(=O)CF (stereo not shown) [Z-[(L)-3-Cl--Ala]--Asp--fmk, Z-[(L)-3-Cl-Ala]-Asp-fmk] | 1000 nM | 
19 | O=C(O)CC(NC(=O)C(NC(=O)OCc1ccccc1)c1ccsc1)C(=O)CF (stereo not shown) [Z-[(L)-3-Thg]--Asp--fmk] [Z-[(L)-3-Thg]-Asp-fmk] | 260 nM | 
20 | Z-[3-F-3-Me-Ala]-Asp-fmk [Z-(3-F-3-Me--Ala)--Asp--fmk] | 480 nM | 
